The source of these data is ChEMBL document CHEMBL3627677, “Novel 2H-chromen-2-one derivatives of resveratrol: Design, synthesis, modeling and use as human monoamine oxidase inhibitors” (Eur J Med Chem, 2015).

Series [1] deals with T1, Amine oxidase [flavin-containing] B (Homo sapiens, UniProt P27338).
T1 sequence (P27338 whole entry): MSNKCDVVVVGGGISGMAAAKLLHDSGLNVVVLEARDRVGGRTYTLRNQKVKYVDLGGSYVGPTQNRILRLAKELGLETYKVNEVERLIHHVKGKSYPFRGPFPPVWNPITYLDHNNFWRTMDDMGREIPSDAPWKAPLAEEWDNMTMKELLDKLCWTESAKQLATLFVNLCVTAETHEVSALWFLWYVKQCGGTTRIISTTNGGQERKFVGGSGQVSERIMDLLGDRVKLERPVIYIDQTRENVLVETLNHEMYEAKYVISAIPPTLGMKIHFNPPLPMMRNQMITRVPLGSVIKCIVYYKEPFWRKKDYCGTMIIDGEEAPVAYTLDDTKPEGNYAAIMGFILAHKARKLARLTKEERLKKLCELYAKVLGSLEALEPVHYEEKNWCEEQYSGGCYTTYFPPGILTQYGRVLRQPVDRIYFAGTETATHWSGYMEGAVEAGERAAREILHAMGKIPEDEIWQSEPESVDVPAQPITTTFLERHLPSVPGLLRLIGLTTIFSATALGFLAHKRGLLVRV
The experiment in a line: Inhibition of recombinant human MAOB using p-tyramine as substrate assessed as H2O2 production preincubated for 15 mins followed by substrate addition by fluorometric analysis.

For series [2], the species on record is Homo sapiens. The experiment in a line: Selectivity ratio of IC50 for recombinant human MAOA to IC50 for recombinant human MAOB.
The species named for series [3] is Homo sapiens. The experiment in a line: Selectivity ratio of IC50 for recombinant human MAOB to IC50 for recombinant human MAOA.
In series [4] the target is T2, Amine oxidase [flavin-containing] A (Homo sapiens, UniProt P21397).
T2 sequence (P21397 whole entry): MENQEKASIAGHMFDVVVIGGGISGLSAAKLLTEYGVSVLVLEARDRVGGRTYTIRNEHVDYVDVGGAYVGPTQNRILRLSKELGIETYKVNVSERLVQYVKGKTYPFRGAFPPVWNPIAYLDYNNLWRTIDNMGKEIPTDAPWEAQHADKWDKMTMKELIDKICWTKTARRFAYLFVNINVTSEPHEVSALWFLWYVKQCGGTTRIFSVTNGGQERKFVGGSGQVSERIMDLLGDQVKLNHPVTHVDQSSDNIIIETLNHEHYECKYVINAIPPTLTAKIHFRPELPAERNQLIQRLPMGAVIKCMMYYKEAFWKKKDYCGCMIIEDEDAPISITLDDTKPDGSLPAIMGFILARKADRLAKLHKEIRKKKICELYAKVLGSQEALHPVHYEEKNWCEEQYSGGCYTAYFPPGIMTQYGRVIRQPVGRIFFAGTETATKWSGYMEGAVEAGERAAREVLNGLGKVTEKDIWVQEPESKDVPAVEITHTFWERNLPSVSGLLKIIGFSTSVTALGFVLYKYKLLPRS
The experiment in a line: Inhibition of recombinant human MAOA using p-tyramine as substrate assessed as H2O2 production preincubated for 15 mins followed by substrate addition by fluorometric analysis.

Series [5] is described as follows: Toxicity in SPF Kuming mouse assessed as death at 500 to 1000 mg/kg, po measured up to 14 days. In kind it is organism-based. Particulars: in vivo.

For the molecule `COc1ccc(/C=C/c2cc(OC)cc(OC)c2/C=C/C(=O)c2cc3cc(Br)ccc3oc2=O)cc1`, the IC50 (commonly the concentration needed to halve the response being measured) in series [1] is over 60 µM; in series [4], 12.1 µM. Further, the results for the Ratio IC50 in series [2] and in series [3] were under 0.2 and over 4.95, respectively.
With `COc1ccc(/C=C/c2cc(OC)cc(OC)c2/C=C/C(=O)c2cc3cccc(Br)c3oc2=O)cc1`, the IC50 in series [1] and in series [4] was over 60 µM each time.
Turning to `COc1ccc(/C=C/c2cc(OC)cc(OC)c2/C=C/C(=O)c2cc3ccc(N(C)C)cc3oc2=O)cc1`, the IC50 in series [1] was over 60 µM.
`COc1ccc(/C=C/c2cc(OC)cc(OC)c2/C=C/C(=O)c2cc3ccc(Cl)cc3oc2=O)cc1`: the IC50 in series [1] is 7.36 µM; in series [4], over 60 µM. In addition, the Ratio IC50 in series [2] is over 8.15; in series [3] it was under 0.12.
For `COc1ccc(/C=C/c2cc(OC)cc(OC)c2/C=C/C(=O)c2cc3c(OC)cccc3oc2=O)cc1`, in that order: 14.5 µM, over 60 µM, over 4.13 and under 0.24.
The corresponding values for `COc1ccc(/C=C/c2cc(OC)cc(OC)c2/C=C/C(=O)c2cc3cccc(OC)c3oc2=O)cc1` are 22.4 µM, over 60 µM, over 2.68 and under 0.37.
For `COc1ccc(/C=C/c2cc(OC)cc(OC)c2/C=C/C(=O)c2cc3cc(F)ccc3oc2=O)cc1`, in that order: 10.2 µM, 44.3 µM, 4.36 and 0.23.
`C=CCc1cc(OC)c2oc(=O)c(C(=O)/C=C/c3c(/C=C/c4ccc(OC)cc4)cc(OC)cc3OC)cc2c1`: the IC50 in series [1] worked out at 50.5 µM; in series [4], 5.3 µM. The Ratio IC50 in series [2] was 0.1; in series [3], 9.53.
The corresponding values for `COc1ccc(/C=C/c2cc(OC)cc(OC)c2/C=C/C(=O)c2cc3ccc(Br)cc3oc2=O)cc1` are 55.3 µM, 3.01 µM, 0.05 and 18.4.
The corresponding values for `COc1ccc(/C=C/c2cc(OC)cc(OC)c2/C=C/C(=O)c2cc3ccccc3oc2=O)cc1` are 9.17 µM, 41.7 µM, 4.54 and 0.22.
For `COc1ccc(/C=C/c2cc(OC)cc(OC)c2/C=C/C(=O)c2cc3cc(Cl)ccc3oc2=O)cc1`, the IC50 in series [1] and in series [4] was over 60 µM throughout.
As for `COc1ccc(/C=C/c2cc(OC)cc(OC)c2/C=C/C(=O)c2cc3ccc(C)cc3oc2=O)cc1`, the IC50 in series [1] is 2.78 µM; in series [4] it was 58.2 µM. Further, the figures for the Ratio IC50 in series [2] and in series [3] were 20.9 and 0.05, respectively. The LD50 (commonly the dose at which mortality reaches 50%) at 336 h in series [5] is over 1000 mg/kg.
For `COc1ccc(/C=C/c2cc(OC)cc(OC)c2/C=C/C(=O)c2cc3cc(OC)ccc3oc2=O)cc1`, the IC50 in series [1] and in series [4] was over 60 µM in each case.
Consider `COc1ccc(/C=C/c2cc(OC)cc(OC)c2/C=C/C(=O)c2cc3ccc(OC)cc3oc2=O)cc1`, for which the IC50 was 4.2 µM in series [1] and over 60 µM in series [4]. Also, the Ratio IC50 in series [2] is over 14.3; in series [3], under 0.07.
Consider `COc1ccc(/C=C/c2cc(OC)cc(OC)c2/C=C/C(=O)c2cc3cc(Br)cc(OC)c3oc2=O)cc1`, for which the IC50 in series [1] and in series [4] was over 60 µM throughout.
For `COc1ccc(/C=C/c2cc(OC)cc(OC)c2/C=C/C(=O)c2cc3c(OC)cc(OC)cc3oc2=O)cc1`, the IC50 came out at 35.5 µM in series [1] and 21.2 µM in series [4]. Besides, the Ratio IC50 in series [2] was determined as 0.6; in series [3], 1.67.
For `COc1ccc(/C=C/c2cc(OC)cc(OC)c2/C=C/C(=O)c2cc3cccc(C)c3oc2=O)cc1`, in that order: 20 µM, over 60 µM, over 3 and under 0.33.
For `CCOc1ccc2cc(C(=O)/C=C/c3c(/C=C/c4ccc(OC)cc4)cc(OC)cc3OC)c(=O)oc2c1`, in that order: 48.1 µM, 7.07 µM, 0.15 and 6.8.
As to `CCOc1cccc2cc(C(=O)/C=C/c3c(/C=C/c4ccc(OC)cc4)cc(OC)cc3OC)c(=O)oc12`, the results for the IC50 in series [1] and in series [4] were over 60 µM and 3.2 µM, respectively. For the same molecule, the Ratio IC50 is under 0.05 in series [2] and over 18.8 in series [3]. Moreover, the LD50 at 336 h in series [5] is over 1000 mg/kg.
Consider `COc1ccc(/C=C/c2cc(OC)cc(OC)c2/C=C/C(=O)c2cc3cc(C)ccc3oc2=O)cc1`, for which the concentration for half-maximal inhibition (IC50) was found to be 5.09 µM in series [1] and 30.4 µM in series [4]. In addition, the Ratio IC50 in series [2] stood at 5.97; in series [3], 0.17.
